Key:
[1] = system: mouse neural stem cells engineered to express MYB-QKI6 (short variant); experiment: Percentage viability of mouse neural stem cells after increased doses of inhibitor; format: cell-based; conditions: mNSCs expressing MYB-QKI6 (short variant); doses 0, 0.05, 0.1, 0.3, 0.5, 1 μM; in comparison with GFP-expressing mNSCs; FIG. 42D
Procedure: (§1) FIGS. 42A-D are a set of graphs showing percentage viability of mouse neural stem cells expressing GFP (FIG. 42A), truncated MYB (FIG. 42B), MYB-QKI5 (short variant) (FIG. 42C), and MYB-QKI6 (short variant) (FIG. 42D) after the treatment of increased doses (0, 0.05, 0.1, 0.3, 0.5, and 1 μM) of JQ1, THZ1 (“CDK7i”), and DMSO as negative control.
(§2) FIG. 44 is a graph showing the percentage viability of mouse neural stem cells expressing GFP (“GFP”), truncated MYB (“MYBtr”), MYB-QKI5 (short variant) (“MYBQKI5”), and MYB-QKI6 (short variant) (“MYBQKI6”) after the treatment of increased doses (0, 0.05, 0.1, 0.3, 0.5, and 1 μM) of dasatinib or DMSO as negative control.
(§3) Modifiers of the MYB pathway and key upstream and downstream effectors were examined for their ability to inhibit growth and induce death of cells expressing MYB-QKI fusion protein. […] Thus, cells expressing truncated MYB or MYB-QKI were specifically sensitive to inhibition of BET by JQ1.
(§4) 1,000 cells/well were plated in 96-well plates, with five replicates. Cell viability was measured by assessing ATP content using CellTiter-Glo (Promega). Means±s.e.m. were calculated.

[2] = system: mouse neural stem cells engineered to express truncated MYB; experiment: as above; format: cell-based; conditions: mNSCs expressing truncated MYB; doses 0, 0.05, 0.1, 0.3, 0.5, 1 μM; in comparison with GFP-expressing mNSCs; FIG. 42B
Procedure: as §1, §2, §3, §4

[3] = system: mouse neural stem cells engineered to express MYB-QKI5 (short variant); experiment: as above; format: cell-based; conditions: mNSCs expressing MYB-QKI5 (short variant); doses 0, 0.05, 0.1, 0.3, 0.5, 1 μM; in comparison with GFP-expressing mNSCs; FIG. 42C
Procedure: as §1, §2, §3, §4

[4] = system: MYB-QKI6 (short variant) fusion protein; experiment: Quantity of protein after treatment with DUB inhibitor; format: cell-based, human; conditions: after treatment with PR619; FIG. 45
Text: (§5) FIG. 45 is a graph showing the quantity of truncated MYB or MYB-QKI fusion protein after the treatment with PR619.
(§6) Another possible approach of suppressing cells expressing truncated MYB or MYB-QKI is reducing the amount of the truncated MYB or MYB-QKI protein, for example, by increasing the degradation of this protein. DUBs remove ubiquitination and thereby increase the half-life of proteins. Thus, DUB inhibitors may accelerate the degradation of truncated MYB or MYB-QKI.
(§7) Cells were lysed and subjected to SDS-PAGE gradient gels as previously described3l. Blots were probed with antibodies against MYB (ab45150, Abcam at 1:500 dilution), QKI (A300-183A, Bethyl Laboratories at 1:1,000 dilution) and actin (sc-1615, Santa Cruz Biotechnology at 1:2,000 dilution).

truncated MYB ("MYBtr") = experiment: as above; format: cell-based, human; conditions: after treatment with PR619; FIG. 45
Text: as §5, §6, §7

[5] = system: MYB-QKI5 (short variant) fusion protein; experiment: as above; format: cell-based, human; conditions: after treatment with PR619; FIG. 45
Text: as §5, §6, §7

[6] = system: mouse neural stem cells engineered to express MYB-QKI6 (short variant); experiment: Cell growth of mouse neural stem cells over a time course; format: cell-based; conditions: mNSCs expressing MYB-QKI6 (short variant); 0.5 μM or 1 μM; 0, 1, 3, 5 days; in comparison with GFP-expressing mNSCs; FIG. 43D
Procedure: (§8) FIGS. 43A-D are a set of graphs showing cell growth of mouse neural stem cells expressing GFP (FIG. 43A), truncated MYB (FIG. 43B), MYB-QKI5 (short variant) (FIG. 43C), and MYB-QKI6 (short variant) (FIG. 43D) over a time course (0, 1, 3, and 5 days) in the presence of 0.5 μM or 1 μM of LY2835219 (“CDK4/6 inhibitor”).
(§9) Inhibition of CDK7 was also examined using a specific CDK7 inhibitor THZ1. […] Thus, cells expressing MYB-QKI were sensitive to inhibition of CDK7 by THZ1. This effect is specific with CDK7. […] Thus, cells expressing truncated MYB or MYB-QKI were specifically sensitive to inhibition of CDK7 by THZ1.
as §4

[7] = system: mouse neural stem cells engineered to express truncated MYB; experiment: as above; format: cell-based; conditions: mNSCs expressing truncated MYB; 0.5 μM or 1 μM; 0, 1, 3, 5 days; in comparison with GFP-expressing mNSCs; FIG. 43B
Procedure: as §8, §9, §4

[8] = system: mouse neural stem cells engineered to express MYB-QKI5 (short variant); experiment: as above; format: cell-based; conditions: mNSCs expressing MYB-QKI5 (short variant); 0.5 μM or 1 μM; 0, 1, 3, 5 days; in comparison with GFP-expressing mNSCs; FIG. 43C
Procedure: as §8, §9, §4

Structure (SMILES) | viability of cells [1] | viability of cells [2] | viability of cells [3] | other results
CN(C)C/C=C/C(=O)Nc1ccc(C(=O)Nc2cccc(Nc3ncc(Cl)c(-c4c[nH]c5ccccc45)n3)c2)cc1 [THZ1] | significantly compromised the viability | significantly compromised the viability | significantly compromised the viability | –
Cc1sc2c(c1C)C(c1ccc(Cl)cc1)=N[C@@H](CC(=O)OC(C)(C)C)c1nnc(C)n1-2 [JQ1] | significantly compromised the viability | significantly compromised the viability | significantly compromised the viability | –
N#CSc1cc(SC#N)c(N)nc1N [PR619] | – | – | – | amount of MYB-QKI6 (short variant) protein [4]: reduced the amount; amount of truncated MYB protein (truncated MYB ("MYBtr")): reduced the amount; amount of MYB-QKI5 (short variant) protein [5]: reduced the amount
CCN1CCN(Cc2ccc(Nc3ncc(F)c(-c4cc(F)c5nc(C)n(C(C)C)c5c4)n3)nc2)CC1 [LY2835219] | – | – | – | cell growth [6]: did not strongly inhibit the growth; cell growth [7]: did not strongly inhibit the growth; cell growth [8]: did not strongly inhibit the growth
